“And” between values parts separate entries of the source, which are not always exact repeats. Identical values can stand only once.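 All cell lines were grown in 96-well plates and treated with compound for 48 hours. The concentration for 50% growth inhibition is given as GI50. TGI is the concentration that stops growth completely.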
Assays:
Assay in all cases: growth of human tumour cells (NCI), 48 h
SF-539 CNS = system: SF-539 CNS
OVCAR-4 ovarian = system: OVCAR-4 ovarian
786-0 renal = system: 786-0 renal
SF-295 CNS = system: SF-295 CNS
RPMI-8226 leukemia = system: RPMI-8226 leukemia
UACC-257 melanoma = system: UACC-257 melanoma
SK-MEL-28 melanoma = system: SK-MEL-28 melanoma
SN12C renal = system: SN12C renal
EKVX NSCLC = system: EKVX NSCLC
MCF7 breast = system: MCF7 breast

## CC(C)COC(=O)N1N=NC2C3CC(=O)C(O3)C21 (configuration not stated)
SF-539 CNS
  TGI: > 100 µM
OVCAR-4 ovarian
  TGI: > 100 µM
786-0 renal
  TGI: > 100 µM
SF-295 CNS
  TGI: > 100 µM
RPMI-8226 leukemia
  TGI: > 100 µM
UACC-257 melanoma
  TGI: > 100 µM
SK-MEL-28 melanoma
  TGI: > 100 µM
SN12C renal
  TGI: > 100 µM
EKVX NSCLC
  TGI: > 100 µM

## CO[C@H](C(=O)O[C@H]1C(=O)N2CCC3CCC1C32C)c1ccccc1 (some centres not stated)
SF-539 CNS
  TGI: > 100 µM
OVCAR-4 ovarian
  TGI: > 100 µM
786-0 renal
  TGI: > 100 µM
SF-295 CNS
  TGI: > 100 µM
RPMI-8226 leukemia
  TGI: > 100 µM
UACC-257 melanoma
  TGI: > 100 µM
SK-MEL-28 melanoma
  TGI: > 100 µM
SN12C renal
  TGI: > 100 µM
EKVX NSCLC
  TGI: > 100 µM

## Nc1nc2ccccc2c2[nH]c3ccccc3c12
SF-539 CNS
  GI50: 1.76 µM
  TGI: 3.37 µM
OVCAR-4 ovarian
  GI50: 1.5 µM
  TGI: 3.52 µM
MCF7 breast
  GI50: 1.19 µM
  TGI: 2.55 µM
786-0 renal
  GI50: 1.12 µM
  TGI: 2.61 µM
UACC-257 melanoma
  GI50: 1.64 µM
  TGI: 2.99 µM
SK-MEL-28 melanoma
  GI50: 1.79 µM
  TGI: 3.19 µM
SN12C renal
  GI50: 1.24 µM
  TGI: 2.97 µM
EKVX NSCLC
  GI50: 3.19 µM
  TGI: 11.6 µM

## C[C@]12CC[C@H](OC(=O)Cc3ccc(N(CCCl)CCCl)cc3)CC1CC[C@@H]1C2CC[C@]2(C)NC(=O)CCC12 (some centres not stated)
SF-539 CNS
  TGI: 12.5 µM
OVCAR-4 ovarian
  TGI: 28.9 µM
786-0 renal
  TGI: 29 µM
SF-295 CNS
  TGI: 25.2 µM
RPMI-8226 leukemia
  TGI: 23 µM
UACC-257 melanoma
  TGI: 27 µM
SK-MEL-28 melanoma
  TGI: 31.9 µM
SN12C renal
  TGI: 18.6 µM

## CC(=O)O[C@H]1CC[C@@]2(C)C(=CC[C@@H]3C2CC[C@]2(C)C(=O)NC(=O)CC32)C1 (some centres not stated)
SF-539 CNS
  TGI: > 100 µM
OVCAR-4 ovarian
  TGI: > 100 µM
786-0 renal
  TGI: > 100 µM
SF-295 CNS
  TGI: > 100 µM
UACC-257 melanoma
  TGI: > 100 µM
SK-MEL-28 melanoma
  TGI: > 100 µM
SN12C renal
  TGI: > 100 µM
EKVX NSCLC
  TGI: > 100 µM

## CCN1C(=O)/C(=C\c2coc3ccccc3c2=O)SC1=S
SF-539 CNS
  TGI: 90.1 µM
OVCAR-4 ovarian
  TGI: > 100 µM
786-0 renal
  TGI: > 100 µM
SF-295 CNS
  TGI: > 100 µM
RPMI-8226 leukemia
  TGI: > 100 µM
UACC-257 melanoma
  TGI: > 100 µM
SK-MEL-28 melanoma
  TGI: > 100 µM
SN12C renal
  TGI: > 100 µM
EKVX NSCLC
  TGI: > 100 µM

## CC[C@@]1(O)C(=O)OCc2c1cc1n(c2=O)Cc2cc3c([N+](=O)[O-])c(O)ccc3nc2-1
SF-539 CNS
  GI50: 0.0449 µM
  TGI: 0.357 µM
OVCAR-4 ovarian
  GI50: 2.22 µM
  TGI: 8.73 µM
786-0 renal
  GI50: 0.0477 µM
  TGI: 0.432 µM
SF-295 CNS
  GI50: 0.155 µM
  TGI: 2.2 µM
RPMI-8226 leukemia
  GI50: 0.848 µM
  TGI: 9.39 µM
UACC-257 melanoma
  GI50: 1.19 µM
  TGI: 16 µM
SK-MEL-28 melanoma
  GI50: 2.75 µM
  TGI: 35.5 µM
SN12C renal
  GI50: 0.057 µM
  TGI: 4.77 µM
EKVX NSCLC
  GI50: 13.3 µM
  TGI: > 100 µM

## CC1OC(OC23C(=O)CC(C)(O)CC2(O)C=CC2=C3C(=O)c3ccc(C4CC(OC5CCC(OC6CC(O)C(O)C(C)O6)C(C)O5)C(O)C(C)O4)c(O)c3C2=O)CCC1O (configuration not stated)
SF-539 CNS
  TGI: 31.8 µM and 31.4 µM
OVCAR-4 ovarian
  TGI: 33.6 µM and 30 µM
786-0 renal
  TGI: 31.7 µM and 29.5 µM
SF-295 CNS
  GI50: 16.5 µM and 3.06 µM
  TGI: 30.4 µM and 9.87 µM
RPMI-8226 leukemia
  TGI: > 100 µM
UACC-257 melanoma
  TGI: 31.9 µM and 28.8 µM
SK-MEL-28 melanoma
  TGI: 29 µM and 27.3 µM
SN12C renal
  TGI: 32.5 µM and 30.1 µM
EKVX NSCLC
  TGI: 32.7 µM and 31.7 µM

## CN(Cc1ccccc1)c1ncnc2ccc(Br)cc12
OVCAR-4 ovarian
  GI50: 12.8 µM
  TGI: 36.8 µM
MCF7 breast
  GI50: 26.4 µM
  TGI: > 100 µM
786-0 renal
  GI50: 13.5 µM
  TGI: 26.3 µM
SF-295 CNS
  GI50: 13.5 µM
  TGI: 28.1 µM
RPMI-8226 leukemia
  GI50: 3.26 µM
  TGI: 13.1 µM
SK-MEL-28 melanoma
  GI50: 15.6 µM
  TGI: 36.1 µM
SN12C renal
  GI50: 15.1 µM
  TGI: 29.6 µM

## O=C1/C(=N/N=C(c2ccccc2)c2ccccc2)c2ccccc2-c2ccccc21
SF-539 CNS
  TGI: > 100 µM
OVCAR-4 ovarian
  TGI: > 100 µM
MCF7 breast
  TGI: > 100 µM
786-0 renal
  TGI: > 100 µM
SF-295 CNS
  TGI: > 100 µM
UACC-257 melanoma
  TGI: > 100 µM
SK-MEL-28 melanoma
  TGI: > 100 µM
SN12C renal
  TGI: > 100 µM
EKVX NSCLC
  TGI: > 100 µM

## Clc1cc2nc[nH]c2cc1Cl
SF-539 CNS
  TGI: > 100 µM
OVCAR-4 ovarian
  TGI: > 100 µM
786-0 renal
  TGI: > 100 µM
SF-295 CNS
  TGI: > 100 µM
RPMI-8226 leukemia
  TGI: > 100 µM
SK-MEL-28 melanoma
  TGI: > 100 µM
SN12C renal
  TGI: > 100 µM
EKVX NSCLC
  TGI: > 100 µM

## O=C1c2cccc3c([N+](=O)[O-])ccc(c23)C(=O)N1CCCCl
SF-539 CNS
  GI50: > 10 µM
  TGI: > 10 µM
OVCAR-4 ovarian
  GI50: 4.77 µM
  TGI: > 10 µM
MCF7 breast
  GI50: 3.03 µM
  TGI: > 10 µM
786-0 renal
  GI50: > 10 µM
  TGI: > 10 µM
SF-295 CNS
  GI50: > 10 µM
  TGI: > 10 µM
RPMI-8226 leukemia
  GI50: 4.61 µM
  TGI: > 10 µM
UACC-257 melanoma
  GI50: 7.14 µM
  TGI: > 10 µM
SK-MEL-28 melanoma
  GI50: 3.84 µM
  TGI: > 10 µM
SN12C renal
  GI50: 5 µM
  TGI: > 10 µM

## Cc1c(C)n(CC(O)CNC2CCCCC2C)c2ccccc12 (configuration not stated)
SF-539 CNS
  GI50: 15.8 µM
  TGI: 30.4 µM
OVCAR-4 ovarian
  GI50: 12 µM
  TGI: 24.4 µM
MCF7 breast
  GI50: 13.2 µM
  TGI: 28.3 µM
786-0 renal
  GI50: 12.5 µM
  TGI: 25.6 µM
SF-295 CNS
  GI50: 14.1 µM
  TGI: 28.2 µM
RPMI-8226 leukemia
  GI50: 9.48 µM
  TGI: 28.6 µM
UACC-257 melanoma
  GI50: 16.2 µM
  TGI: 31 µM
SK-MEL-28 melanoma
  GI50: 14 µM
  TGI: 27.4 µM
SN12C renal
  GI50: 16 µM
  TGI: 30.5 µM

## CCOC(=O)C1Nc2ccc([N+](=O)[O-])cc2[C@H]2OCC[C@@H]12 (some centres not stated)
SF-539 CNS
  TGI: > 100 µM
OVCAR-4 ovarian
  TGI: > 100 µM
786-0 renal
  TGI: > 100 µM
SF-295 CNS
  TGI: > 100 µM
UACC-257 melanoma
  TGI: > 100 µM
SK-MEL-28 melanoma
  TGI: > 100 µM
SN12C renal
  TGI: > 100 µM
EKVX NSCLC
  TGI: > 100 µM

## O=C(NCCN1CCOCC1)Nc1nc2ccc(Sc3nnc4ccc(-c5ccc(F)cc5)nn34)cc2s1
SF-539 CNS
  GI50: 2.94 µM
  TGI: > 100 µM
MCF7 breast
  TGI: > 100 µM
786-0 renal
  GI50: 1.59 µM
  TGI: 5.39 µM
SF-295 CNS
  GI50: 0.101 µM
  TGI: 1.95 µM
UACC-257 melanoma
  GI50: 7.94 µM
  TGI: > 21.2 µM
SK-MEL-28 melanoma
  GI50: 2.59 µM
SN12C renal
  TGI: > 100 µM

## Nc1ncnc2c1ncn2C1OC(CO)CC1O (configuration not stated)
SF-539 CNS
  TGI: > 100 µM
OVCAR-4 ovarian
  TGI: > 100 µM
786-0 renal
  TGI: 45.8 µM
SF-295 CNS
  TGI: > 100 µM
UACC-257 melanoma
  TGI: > 100 µM
SK-MEL-28 melanoma
  TGI: > 100 µM
SN12C renal
  TGI: 80.2 µM
EKVX NSCLC
  TGI: > 100 µM

## C=CC1CC12C(=O)C1OC2(C)C2C(=O)c3c(O)cccc3C(=O)C12 (configuration not stated)
SF-539 CNS
  GI50: 41.6 µM
  TGI: > 100 µM
MCF7 breast
  GI50: 23.2 µM
  TGI: 74.5 µM
786-0 renal
  GI50: 29.1 µM
  TGI: > 100 µM
UACC-257 melanoma
  GI50: 33.3 µM
  TGI: > 100 µM
SK-MEL-28 melanoma
  GI50: 29.1 µM
  TGI: > 100 µM
SN12C renal
  GI50: 46.8 µM
  TGI: > 100 µM
EKVX NSCLC
  GI50: 56.9 µM
  TGI: > 100 µM

## Cc1cc(N(CCC#N)CCC#N)ccc1/C=C(\NC(=O)/C=C/c1ccccc1)NC(=O)Nc1ccccc1C
SF-539 CNS
  TGI: > 100 µM
OVCAR-4 ovarian
  TGI: > 100 µM
786-0 renal
  TGI: > 100 µM
SF-295 CNS
  TGI: > 100 µM
RPMI-8226 leukemia
  TGI: > 100 µM
UACC-257 melanoma
  TGI: > 100 µM
SK-MEL-28 melanoma
  TGI: > 100 µM
SN12C renal
  TGI: > 100 µM
EKVX NSCLC
  TGI: > 100 µM

## O=C(/C=C/c1ccc[nH]1)c1ccccc1
SF-539 CNS
  TGI: > 100 µM
OVCAR-4 ovarian
  TGI: > 100 µM
786-0 renal
  TGI: > 100 µM
SF-295 CNS
  TGI: > 100 µM
RPMI-8226 leukemia
  TGI: > 100 µM
UACC-257 melanoma
  TGI: > 100 µM
SK-MEL-28 melanoma
  TGI: > 100 µM
SN12C renal
  TGI: > 100 µM

From PubChem BioAssay (NCI)
